Experimental findings from ChEMBL document CHEMBL1147163 (Bioorg Med Chem, 2007) are described below.

One data set can be described thus: Inhibition of rat microsomal VKER.
As a reminder, the IC50 is the concentration that gives 50% inhibition. Higher therefore signals lower potency. In the case of `CCC(c1ccccc1)c1c(O)c2ccccc2oc1=O` (stereo unspecified) [PHENPROCOUMON], the midpoint of inhibition, the IC50, lay at 1800 nM.

`CCCCCCCC/C=C\CCCCCCCCc1c(O)c2ccccc2oc1=O`: the IC50 came out at 900 nM.

Consider `CC(=O)CC(c1ccccc1)c1cc2ccccc2oc1=O` (stereo unspecified), for which the 50% inhibitory concentration (IC50) was above 500000 nM.

The compound `CC(C)=CCC/C(C)=C/CC/C(C)=C/Cc1c(O)c2ccccc2oc1=O` registered an IC50 of 98 nM.

`CC(=O)CC(c1ccccc1)c1c(O)c2ccccc2oc1=O` (stereo unspecified) [WARFARIN] gave an IC50 of 2200 nM.

In the case of `CC(=O)CC(c1ccccc1)c1c(SC[C@@H](NC(C)=O)C(=O)O)c2ccccc2oc1=O` (stereo partly specified), the IC50 was above 500000 nM.

Compound `CC(C)=CCC/C(C)=C/CC/C(C)=C/CC1=C(O)c2ccccc2C(=O)C1=O` returned an IC50 of 130 nM.

On to `CC(=O)CC(c1ccccc1)c1c(S)c2ccccc2oc1=O` (stereo unspecified), for which the IC50 is 18300 nM.

With `CC(=O)CC(c1ccccc1)c1c(OS(=O)(=O)C(F)(F)F)c2ccc(O)cc2oc1=O` (stereo unspecified) [WARFARIN TRIFLATE], the IC50 is above 500000 nM.

`COc1c(C(CC(C)=O)c2ccccc2)c(=O)oc2ccccc12` (stereo unspecified) showed a half-inhibitory concentration (IC50) above 500000 nM.

Compound `CC(C)=CCC/C(C)=C/CC/C(C)=C/Cc1c(O)c2cc(C)c(C)cc2oc1=O` [DIMETHYLFERULENOL] registered an IC50 of 340 nM.

For the compound `O=c1oc2ccccc2c(O)c1Cc1c(O)c2ccccc2oc1=O` [DICUMAROL], half-maximal inhibition (IC50) was put at 3100 nM.

Regarding `CC(=O)CC(C1=C(O)c2ccccc2C1=O)c1ccccc1` (stereo unspecified), inhibition was half-maximal at 3000 nM (IC50).

The compound `CC(C)=CCc1c(O)c2ccccc2oc1=O` [ISOPRENYLCOUMARIN] yielded a 50% inhibitory concentration (IC50) of 79000 nM.

As to `O=c1oc2ccccc2c(O)c1C1CC(c2ccc(-c3ccc(Br)cc3)cc2)Cc2ccccc21` (stereo unspecified) [BRODIFACOUM], the concentration for half-maximal inhibition (IC50) is 150 nM.

Take `CC(=O)CC(c1ccccc1)c1c(Cl)c2ccccc2oc1=O` (stereo unspecified): the IC50 is above 500000 nM.

In the case of `CC(=O)CC(c1ccccc1)c1c(O)oc2cc(O)ccc2c1=O` (stereo unspecified), the half-maximal inhibitory concentration (IC50) was 250000 nM.

Compound `CC(O)CC(c1ccccc1)c1c(O)c2ccccc2oc1=O` (stereo unspecified) [WARFARIN ALCOHOL] yielded an IC50 of 12500 nM.

In the case of `CC(=O)CC(c1ccc([N+](=O)[O-])cc1)c1c(O)c2ccccc2oc1=O` (stereo unspecified) [ACENOCOUMAROL], the IC50 worked out at 770 nM.

On to `CC(=O)CC(c1ccccc1)c1c(O)oc2ccc(O)cc2c1=O` (stereo unspecified), for which the concentration for half-maximal inhibition (IC50) was 12800 nM.

The next data set is described as follows: Dissociation constant, pKa of the compound. The format is physicochemical.
As usually defined, the pKa is the pH at which an ionisable group is half protonated. Read a low pKa as a stronger acid or weaker base. `CC(=O)CC(c1ccccc1)c1c(S)c2ccccc2oc1=O` (stereo unspecified): the pKa turned out to be 6.6.
